In US9408391B2, “Fungicide composition comprising a tetrazolyloxime derivative and a thiazolylpiperidine derivative” (BAYER INTELLECTUAL PROPERTY GMBH, priority 2010, dated 2016):
Read-outs that look alike come from different tables or passages of the source.

What was measured:
Phytophthora infestans = format: in vivo; settings: tomato plants, preventive spray, evaluated 3 days after inoculation
Venturia inaequalis = assay: Venturia test (apples)/preventive; settings: apple plants, preventive spray, 100 ppm a.i., evaluated 10 days after inoculation
Description: Venturia Test (Apples)/Preventive
Solvent: 24,5 parts by weight of acetone • 24,5 parts by weight of dimethylacetamide
Emulsifier: part by weight of alkylaryl polyglycol ether
After the spray coating has dried on the plants are inoculated with an aqueous conidia suspension of the causal agent of apple scab (Venturia inaequalis) and then remain for 1 day in an incubation cabinet at approximately 20° C. and a relative atmospheric humidity of 100%.
The plants are then placed in a greenhouse at approximately 21° C. and a relative atmospheric humidity of approximately 90%.
The test is evaluated 10 days after the inoculation.

Cn1nnnc1/C(=N\OCc1cccc(NC(=O)OC(C)(C)C)n1)c1ccccc1 [(A2)]
Efficacy in % found (Phytophthora infestans; 1 ppm a.i.): 46%
Efficacy in % found (Venturia inaequalis): 22%

Cc1cc(C(F)(F)F)nn1CC(=O)N1CCC(c2nc(C3=NOC(c4c(F)cccc4F)C3)cs2)CC1 (stereo not shown) [(B2), 1-(4-{4-[5-(2,6-difluorophenyl)-4,5-dihydro-1,2-oxazol-3-yl]-1,3-thiazol-2-yl}piperidin-1-yl)-2-[5-methyl-3-(trifluoromethyl)-1H-pyrazol-1-yl]ethanone]
Efficacy in % found (Phytophthora infestans; 0.01 ppm a.i.): 30%
Efficacy in % found (Venturia inaequalis): 0%
